Data as given in PMC5817852 (The Open Medicinal Chemistry Journal, 2018).
Like-named read-outs stand apart in the source and are kept apart here.

Assays:
[1] = system: PC3 prostate cancer cell line; test: qHTS cell viability screen (Cell Titer Glo), PC3; assay type: cell-based; conditions: for CC50: read-out: CC50 PC3
[2] = system: NALM16 cell line (acute lymphoblastic leukemia); test: Additional cancer cell line panel, NALM16; assay type: cell-based, human; conditions: confidence intervals in parentheses, NA: not active
[3] = system: RAJI cells (Burkitt's leukaemia/lymphoma); test: Additional cancer cell line panel, RAJI; assay type: cell-based; conditions: confidence intervals in parentheses, NA: not active
[4] = system: REH cells (precursor B-cell ALL); test: Additional cancer cell line panel, REH; assay type: cell-based, human; conditions: read-out: EC50 REH
[5] = system: BJ cells, normal human foreskin fibroblast cell line; test: BJ cell cytotoxicity counter screen
Text: (§1) Most analogs in the presented series are lipophilic while also containing a positively charged amine. Lipophilic basic amines can accumulate in cell membranes if their lipophilic atom groups form favorable non-polar contacts with lipid chains while their charged amine is interacting with fatty acid head groups. Such association with lipids can lead to cytotoxicity through membrane destabilization. Therefore, we evaluated a number of representative compounds against BJ cells, a normal human foreskin fibroblast cell line, where cytotoxicity was determined at 10 µM drug concentration, as described previously.
(§2) minimum locked at 0 and 100 respectively.
(§3) children with ALL in relapse.
(§4) foreskin fibroblast cell line (BJ).
(§5) Table 2. […] SSA: Sulindac sulfide

[6] = system: MDA-MB-231 breast cancer cell line; test: qHTS cell viability screen (Cell Titer Glo), MDA-MB-231; assay type: cell-based
[7] = BJ cell cytotoxicity counter screen; conditions: human
Text: as §1, §2, §3, §4, §5

[8] = system: HT29 colorectal carcinoma; test: qHTS cell viability screen (Cell Titer Glo), HT29; assay type: cell-based
[9] = system: Acute T cell leukemia Jurkat e6-1 cells (JURKT); test: Additional cancer cell line panel, JURKT; assay type: cell-based; conditions: confidence intervals in parentheses, NA: not active
[10] = system: Cell line 697 (ALL in relapse); test: Additional cancer cell line panel, 697; assay type: cell-based, human; conditions: confidence intervals in parentheses, NA: not active
Text: as §1, §2, §3, §4, §5

COX-1 = system: COX-1; design: method as in PMID 19470791; conditions: cited from earlier work
COX-2 = system: COX-2; design: method as in PMID 19470791; conditions: cited from earlier work
[11] = PC3 prostate, 72 hours, cell viability Cell Titer Glo
[12] = confidence intervals in parentheses, NA: not active
[13] = 72 h, PC3 prostate, 72 hours, cell viability Cell Titer Glo
[14] = Homo sapiens, MDA-MB-231, 96 h, MDA-MB-231 breast, 96 hours, cell viability Cell Titer Glo, read-out: CC50 MDA-MB-231
[15] = MDA-MB-231 breast, 96 hours, cell viability Cell Titer Glo, read-out: CC50 MDA-MB-231
[16] = Homo sapiens, REH, confidence intervals in parentheses, NA: not active
[17] = BJ cells (normal human foreskin fibroblast cell line)
[18] = Homo sapiens, HT-29, 72 h, HT29 colorectal carcinoma, 72 hours, cell viability Cell Titer Glo, read-out: CC50 HT29
[19] = read-out: EC50 BJ (cytotoxicity), BJ normal human foreskin fibroblasts, confidence intervals in parentheses

| Compound | EC50 [2] | EC50 [4, 16] | CC50 [1, 11] | CC50 [1, 13] | CC50 [6, 14] | CC50 [6, 15] | EC50 [7, 17] | further results |
| --- | --- | --- | --- | --- | --- | --- | --- | --- |
| COc1cc(/C=C2/C(C)=C(CN(Cc3ccncc3)Cc3ccncc3)c3cc(F)ccc32)cc(OC)c1OC [Compound 56] | 32 µM |  | 9.09 ± 0.87 µM |  |  |  |  | EC50 [3]: 58 µM; EC50 [4, 12]: 32 µM; EC50 [5]: > 22.7 µM |
| 3,4,5-trimethoxybenzylidene-3-indenylmethyl-2-phenylacetamide [Compound 26] | 8.1 µM |  |  |  |  |  |  | increased anticancer activity in comparison with SSA, colon cancer cells ([8]; versus SSA): 6-7 fold; increased anticancer activity in comparison with SSA, prostate cancer cells ([1]; versus SSA): 6-7 fold; increased anticancer activity in comparison with SSA, breast cancer cells ([6]; versus SSA): 27 fold; EC50 [3]: 8.3 µM; EC50 [9]: 11 µM; EC50 [4, 12]: 19 µM; EC50 [10]: 15 µM; EC50 [5, 19]: > 22.7 µM |
| CSc1ccc(/C=C2/C(C)=C(CNC(=O)[C@@H](N)C(C)C)c3cc(F)ccc32)cc1 [Compound 24] |  | 14 µM | 5.16 ± 0.5 µM | < 10 µM | < 10 µM | 6.81 ± 0.63 µM | 16.7 µM | EC50 ([3]; Homo sapiens, Raji): 39 µM; EC50 ([9]; Homo sapiens, Jurkat E6.1): 15 µM; EC50 ([10]; Homo sapiens): 16 µM; melting point: 133 to 135 °C |
| CSc1ccc(/C=C2/C(C)=C(CN(Cc3ccncc3)Cc3ccncc3)c3cc(F)ccc32)cc1 [Compound 49] | 0.051 µM |  | 12.7 ± 1.44 µM |  |  |  |  | CC50 [8]: 10.8 ± 1.84 µM; CC50 [6]: 9.5 ± 2.14 µM; EC50 [5]: > 22.7 µM |
| COc1cc(/C=C2/C(C)=C(CNC(=O)[C@@H](N)CC(C)C)c3cc(F)ccc32)cc(OC)c1OC [Compound 31] |  |  |  |  |  |  |  | CC50 ([8]; Homo sapiens, HT-29, 72 h, read-out: CC50 HT29): 5.21 ± 0.39 µM; CC50 ([1]; 72 h): 12 ± 1.47 µM; CC50 ([6]; Homo sapiens, MDA-MB-231, 96 h, read-out: CC50 MDA-MB-231): 8.87 ± 1.38 µM; EC50 ([4]; Homo sapiens, REH): 16 µM; EC50 [7]: > 22.7 µM |
| CSc1ccc(/C=C2/C(C)=C(CC(=O)NCCN(C)C)c3cc(F)ccc32)cc1 [SSA, Sulindac sulfide amide, reference compound] |  |  |  | 3.12 ± 0.15 µM | 2.67 ± 0.08 µM |  |  | CC50 [8, 18]: 0.65 ± 0.03 µM; EC50 [5, 19]: > 7.57 µM; activity against COX-1 (COX-1): no activity; activity against COX-2 (COX-2): no activity |
| CSc1ccc(/C=C2/C(C)=C(CNC(=O)[C@@H](N)CC(C)C)c3cc(F)ccc32)cc1 [Compound 23] |  | 16 µM | 6.21 ± 0.49 µM | < 10 µM | < 10 µM | 6.7 ± 0.71 µM | 16.4 µM | EC50 ([2]; Homo sapiens, NALM16): 30 µM |

Now from value to compound, other results behind:

| EC50 [2] | EC50 [4, 16] | Compound | CC50 [1, 11] | CC50 [1, 13] | CC50 [6, 14] | CC50 [6, 15] | EC50 [7, 17] | further results |
| --- | --- | --- | --- | --- | --- | --- | --- | --- |
|  | 21 µM | COc1cc(/C=C2/C(C)=C(CNC(=O)[C@@H](N)C(C)C)c3cc(F)ccc32)cc(OC)c1OC [Compound 32] | 8.11 ± 0.41 µM | < 10 µM | < 10 µM | 7.3 ± 0.73 µM | > 22.7 µM | EC50 ([3]; Homo sapiens, Raji): 110 µM |
|  | 53 µM | COc1cc(/C=C2/C(C)=C(CNC(=O)[C@@H](N)CO)c3cc(F)ccc32)cc(OC)c1OC [Compound 30] |  | 26.5 ± 6.01 µM | 11.9 ± 2.27 µM |  | > 22.7 µM | CC50 [8, 18]: 11.1 ± 1.35 µM; melting point: 118 to 120 °C |
| 230 µM |  | COc1cc(/C=C2/C(C)=C(CNC(=O)CN)c3cc(F)ccc32)cc(OC)c1OC [Compound 29] | 17.9 ± 2.08 µM |  |  | 9.92 ± 2.13 µM |  | CC50 ([8]; HT29 colorectal carcinoma, 72 hours, cell viability Cell Titer Glo, read-out: CC50 HT29): 8.51 ± 1.7 µM; EC50 [5, 19]: > 22.7 µM |
|  | 38 µM | COc1cc(/C=C2/C(C)=C(CNC(=O)[C@@H]3CCCN3)c3cc(F)ccc32)cc(OC)c1OC [Compound 33] |  | 11.9 ± 1.56 µM | 8.2 ± 0.99 µM |  | > 22.7 µM | CC50 [8, 18]: 5.67 ± 1.67 µM; EC50 ([9]; Homo sapiens, Jurkat E6.1): 33 µM; melting point: 64 to 66 °C |
